# Measurements reported in patent publication US8750968B2, “Device and procedure for the diagnosis or diagnostic preparation and/or therapy monitoring of inflammatory diseases such as rheumatoid arthritis” (MIVENION GmbH, priority 2007, dated 2014).
# Legend:
# [1] = system: activated rheumatoid arthritis; experiment: activity value AKT from ICG fluorescence imaging of both hands, two examinations four weeks apart; assay type: in vivo, human; details: for activity value AKT: current examination vs four weeks before, values less than 1 indicate a decrease in disease activity
# Method: A correction factor (CF) is determined after the calculation of the average AUCRef value above the fingernails. The quotient of the mean AUCRef value and the correction factor (CF) should result in a reference factor (RF) with a value of 100. CF=mean AUCRef/100(RF) 100(RF)=mean AUCRef/CF
# Each of the obtained 28 AUC values of the interphalangeal articulations of the hands is processed by mathematical correlation. By dividing the AUC values by CF, corrected AUC values (AUCcorr) are obtained for the ROI above the respective interphalangeal articulations of the hands. AUCcorr=AUC/CF
# The inventive process is further characterized by the layout of a method that allows the comparison of different examinations on the same patient. This method should compensate the different levels of the fluorescence signal intensity that result from the variable pharmacokinetics of ICG. The correction factor (CF) is calculated for each measurement leading to the formation of the signal intensity curve. Any number or any type of examinations can be assigned to one another by means of the CF of the ROI above the fingernails. Due to the division of the AUCcorr values from an arbitrary examination by CF, they can be directly compared with other AUCcorr values from previous examinations. The equation for calculating an arbitrary examination n is as follows: AUCcorr(n)=AUC(n)/CF(n)
# The value AKT for the time-dependent disease activity results from the possibility of direct comparability of the corrected AUC values. The formula for calculating the activity value AKT of any two examinations over time is as follows: AKT=AUCcorr(n)/AUCcorr(n-1)
# Values greater than 1 point out an increasing disease activity, respectively a deterioration of the result, whereas values less than 1 indicate an enhancement of the result, respectively a decrease in disease activity.
# Methods and implementation: Intravenous injection of indocyanine green (ICG pulsion) at a dose of 0.2 mg/kg. Bolus injection for about 5 s, the measurement time 0 corresponds to the termination of the Injection. Measuring device: simultaneous measurement of both the hands, illumination surface about 20 cm×30 cm, LEDs, excitation wavelength of 775 nm, detection >800 nm (2 long-pass interference filters, each of whose λ50%=800 nm), iCCD camera with standard lens (water/Peltier-type cooling).
# Data collection (image capture) for both the hands up to 10 minutes after the injection with a cycle time of 3 s (20 frames/min). […]
# The activity values AKT are calculated by dividing each of the corrected results of the […] examination by each of the corresponding corrected results of the second examination respectively.
# [2] = system: activated rheumatoid arthritis; experiment: clinical examination and patient report after four weeks of intensive therapy; assay type: in vivo, human; details: four weeks after start of therapy
# Method: Patient, weight 59 kg. Patient with an acute progression of rheumatoid arthritis and damage to the joints DIP-R3, PIP-R3 and PIP-R4. The patient was examined twice: the current examination as well as four weeks before the current examination. An intensive therapy using Infliximab® was administered upon the diagnosis of an activated rheumatoid arthritis four weeks before the current examination.
substance,measurement,setting,value
Infliximab [Infliximab®],activity value AKT,[1]; joint DIP-R3,0.71
same,activity value AKT,[1]; joint PIP-R3,0.65
same,activity value AKT,[1]; joint printed PIP-84,0.911
same,effectiveness of the ongoing intensified therapy,"[1]; patient, after four weeks of therapy",could be quantitatively demonstrated just after four weeks
same,"subjective perception of the disease (morning stiffness, pain sensations)",[2]; patient report,improvement in the subjective perception of the disease
same,clinical examination result (inflammation of the diseased joints),[2]; patient,essentially unchanged result with only a low-level decline in the inflammation of the diseased joints
